Laboratory results from patent US12281225B2, “Process for preparing stable polymers containing vinylimidazole” (BASF SE, priority 2018, dated 2025).

Tested on: Yeast: Candida albicans, Candida valida, Rhodotorula rura, Saccharomyces cerevisiae
Assay: Preservation test with periodic inoculation, yeast assessment
Format: cell-based
Details: for 60 d 40° C., yeast assess., 4th inoculation: sample stored 60 d at 40° C.; for Start sample measurement, yeast assess., 4th inoculation: freshly formulated
Protocol: Microbiological results at the start (freshly formulated, i.e. 4-week test series is started immediately) and after 60 days of storage at 40° C. (i.e. the 4-week microbial testing is started with the sample stored at 40° C. for 60 days)
The test described below is carried out in order to ascertain the preserving effect of chemical preservatives in aqueous products and systems, the principle of the described method reflecting the efficacy of chemical preservatives with respect to pot-maintenance of aqueous products/systems under conditions corresponding to the use of laundry products/consumer products by the consumer. For this purpose, the preservatives to be tested are added in those concentrations which correspond to from the literature or to the manufacturer data from the suppliers (e.g. Thor, Speyer). In said test, our orientation was toward the upper range, which, with the exception of VI-containing polymers, had always led to excellent results in the case of aqueous polymers for laundry.
A constant microorganism load is achieved by periodic inoculation of the test batches. Before the swabs of each batch made respectively immediately in parallel with the inoculation. The assessment is made on the basis of the microbial growth of the streaks.
When carrying out said tests, 25 g of the polymer to be tested are weighed in each case into a vessel with a screw cap. The preservatives to be tested are each added in separate batches according to the specified use concentrations. An unpreserved product sample was used in each case for the growth control. Two days after the addition of the preservative, the samples are infected with 0.5 ml of inoculum (2% w/w). The titer of this inoculant solution is 10^9 organisms per ml. The following microorganisms are the test organisms for the preservation test:
• Escherichia coli • Staphylococcus aureus • Pseudomonas aeruginosa • Pseudomonas putida • Burkholderia cepacia • Alcaligenes faecalis Yeast: • Candida albicans • Candida valida • Rhodotorula rura • Saccharomyces cerevisiae
The test batches are inoculated four times altogether and once a week and are streaked on an agar plate once a week; the first streaking is done immediately before the new inoculation. Microbial growth on the agar surface is assessed after a three-day incubation at 25° C. As a precaution, negative swabs are additionally observed for a further three days and reassessed. The preserving effect is effected in a semiquantitative method via the growth of the individual streaks in accordance with the assessment from − via + to +++. The preservative result is repeatedly demonstrably robust, i.e. +++− defines the microbial growth.
When assessing the results, it is assumed that a preservative can be regarded as good if there are batches under the above-described laboratory conditions for a period of four weeks without microbial invasion of the sample, and that, even after the fourth inoculation, no microbial attacks occur growth can be identified. • −−: no growth • −: slight growth, max. 100 colonies • 0: moderate growth, max. 400 colonies • +: uniform growth with individual colonies still easily identifiable • ++: strong growth; too many colonies to be counted, already some extensive growth

| Compound | 60 d 40° C., yeast assess., 4th inoculation (Polymer P1) | 60 d 40° C., yeast assess., 4th inoculation (Polymer P2) | Start sample measurement, yeast assess., 4th inoculation (Polymer P3) | 60 d 40° C., yeast assess., 4th inoculation (Polymer P3) | Start sample measurement, yeast assess., 4th inoculation (Polymer P4) | 60 d 40° C., yeast assess., 4th inoculation (Polymer P4) | Start sample measurement, yeast assess., 4th inoculation (Polymer P5 (HP56)) | 60 d 40° C., yeast assess., 4th inoculation (Polymer P5 (HP56)) | Start sample measurement, yeast assess., 4th inoculation (Polymer P6) | 60 d 40° C., yeast assess., 4th inoculation (Polymer P6) | Start sample measurement, yeast assess., 4th inoculation (Polymer P7) | 60 d 40° C., yeast assess., 4th inoculation (Polymer P7) | 60 d 40° C., yeast assess., 4th inoculation (Polymer P8) | Start sample measurement, yeast assess., 4th inoculation (Polymer P9) | 60 d 40° C., yeast assess., 4th inoculation (Polymer P9) | Start sample measurement, yeast assess., 4th inoculation (Polymer P1) | Start sample measurement, yeast assess., 4th inoculation (Polymer P2) | Start sample measurement, yeast assess., 4th inoculation (Polymer P8) |
| --- | --- | --- | --- | --- | --- | --- | --- | --- | --- | --- | --- | --- | --- | --- | --- | --- | --- | --- |
| O=c1[nH]sc2ccccc12 [BIT, 1,2-benzisothiazolin-3-one] | + | ++ | − (slight growth, max. 100 colonies) | ++ | − (slight growth, max. 100 colonies) | ++ | − (slight growth, max. 100 colonies) | ++ | − (slight growth, max. 100 colonies) | ++ | − (slight growth, max. 100 colonies) | ++ | + | − (slight growth, max. 100 colonies) | ++ |  |  |  |
| Cn1sc(Cl)cc1=O [CMIT, 5-chloro-N-methylisothiazolin-3-one] | + | + | − (slight growth, max. 100 colonies) | ++ | − (slight growth, max. 100 colonies) | + | − (slight growth, max. 100 colonies) | ++ | − (slight growth, max. 100 colonies) | + | − (slight growth, max. 100 colonies) | ++ | 0 (moderate growth, max. 400 colonies) | − (slight growth, max. 100 colonies) | ++ | − (slight growth, max. 100 colonies) | − (slight growth, max. 100 colonies) | − (slight growth, max. 100 colonies) |
| CCCCCCCCn1sc(Cl)c(Cl)c1=O [DCOIT, dichloroctylisothiazolinone] | + | + | − (slight growth, max. 100 colonies) | ++ | − (slight growth, max. 100 colonies) | ++ | − (slight growth, max. 100 colonies) | ++ | − (slight growth, max. 100 colonies) | + | − (slight growth, max. 100 colonies) | ++ | 0 (moderate growth, max. 400 colonies) | − (slight growth, max. 100 colonies) | ++ | − (slight growth, max. 100 colonies) | − (slight growth, max. 100 colonies) | − (slight growth, max. 100 colonies) |
| CCCCNC(=O)OCC#CI [Iodopropynyl butyl carbamate, iodopropynyl butyl carbamate] | + + | + | − (slight growth, max. 100 colonies) | + | − (slight growth, max. 100 colonies) | ++ | − (slight growth, max. 100 colonies) | + | − (slight growth, max. 100 colonies) | + | − (slight growth, max. 100 colonies) | + | + | − (slight growth, max. 100 colonies) | + | − (slight growth, max. 100 colonies) | − (slight growth, max. 100 colonies) | − (slight growth, max. 100 colonies) |
| Cn1sccc1=O [MIT, methyl-4-isothiazolin-3-one] | 0 (moderate growth, max. 400 colonies) | + |  | ++ |  | ++ |  | ++ |  | ++ |  | ++ | + |  | ++ |  |  |  |
| CCCCCCCCn1sccc1=O [OIT, octylisothiazolinone] | + | ++ | 0 (moderate growth, max. 400 colonies) | ++ | 0 (moderate growth, max. 400 colonies) | ++ | 0 (moderate growth, max. 400 colonies) | ++ | 0 (moderate growth, max. 400 colonies) | ++ | 0 (moderate growth, max. 400 colonies) | ++ | + | − (slight growth, max. 100 colonies) | ++ | − (slight growth, max. 100 colonies) | − (slight growth, max. 100 colonies) | − (slight growth, max. 100 colonies) |
| CCCCCCCCCCCCCCCC[N+](C)(C)Cc1ccccc1.[Cl-] [Polymer 16-BAC, cetylalkonium chloride] | − (slight growth, max. 100 colonies) | − (slight growth, max. 100 colonies) | − (slight growth, max. 100 colonies) | − (slight growth, max. 100 colonies) | − (slight growth, max. 100 colonies) | − (slight growth, max. 100 colonies) | − (slight growth, max. 100 colonies) | − (slight growth, max. 100 colonies) | − (slight growth, max. 100 colonies) | − (slight growth, max. 100 colonies) | − (slight growth, max. 100 colonies) | − (slight growth, max. 100 colonies) | − (slight growth, max. 100 colonies) |  | − (slight growth, max. 100 colonies) |  | − (slight growth, max. 100 colonies) |  |
| benzalkonium chloride [BAC] | − (slight growth, max. 100 colonies) | − (slight growth, max. 100 colonies) |  | − (slight growth, max. 100 colonies) |  |  |  |  |  |  |  |  |  |  |  |  |  |  |
